SMILES strings stand for the structures. Active and inactive are the calls of the source.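 The calls were made as follows: active = EC50 no more than a set limit of log units above the highest dose; inactive = the rest.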

This assay addresses S. pyogenes SKKanGAS, kanamycin survival, BacTiterGlo, 6 h. The assay can be described thus: S. pyogenes SKKanGAS kanamycin growth inhibitors – SKKanGAS strain, luminescence, dose confirmation, streptokinase promoter inhibitor project, dose response (AID 1902).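 Also: lower survival reflects blocked streptokinase promoter driving kanamycin resistance gene.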
Usually EC50 stands for the concentration at which the effect is half-maximal. `Oc1c(CN2CCc3ccccc3C2)cc(Cl)c2cccnc12`: the EC50 is 2.15 µM. On to `COc1ccc(C(=O)CC(=O)C(=O)Nc2ccccc2C(F)(F)F)cc1`, for which the EC50 was 2.05 µM. For the compound `CC(C)=CCc1c(O)cc2oc3c(CC=C(C)C)c(O)c(O)c(CC=C(C)C)c3c(=O)c2c1O`, the half-maximal effective concentration (EC50) is 0.828 µM. For `Cc1cc(C)nc(N/N=C/c2cc(Br)ccc2O)n1`, the EC50 was 12.9 µM.

For `c1ccc2c(Nc3nc4c(s3)CCCC4)cccc2c1`, the 50% effective concentration (EC50) was 1.17 µM. `COc1ccc(-c2cn[nH]c2-c2ccc(OC)cc2)cc1`: the EC50 was 6.64 µM. As for `CCCc1nc2ccccc2c(=O)n1NC(=O)c1c(O)c2cccc3c2n(c1=O)CCC3`, the concentration for a half-maximal effect (EC50) is 2.6 µM. The same measure for `CC(Oc1ccc(Cl)cc1Cl)C(=O)Nc1ccc2oc(-c3ccncc3)nc2c1` (stereo not drawn): 6.24 µM.

With `O=S(=O)(Cc1nnnn1-c1ccccc1)c1ccc(F)cc1`, the EC50 is > 15 µM (inactive). For `COc1ccc(C2c3ccc(O)cc3Oc3ncn4nc(-c5ccncc5)nc4c32)cc1OC` (stereo not drawn), the half-maximal effective concentration (EC50) is 6.28 µM.

On to `COc1cccc(/C=C(/C(=O)OCC(=O)NC2CCCC(C)C2C)c2ccccc2)c1` (stereo not drawn), for which the EC50 is 8.45 µM. Regarding `N=C(N)c1ccc(OCCCCCOc2ccc(C(=N)N)cc2)cc1`, the concentration giving a half-maximal response (EC50) is below 0.06 µM. For `O=C(CN1C(=O)COc2ccc(S(=O)(=O)N3CCCCC3)cc21)NCc1ccc(F)cc1`, the EC50 is > 15 µM (inactive).

As to `N#CC(C#N)=NNc1ccc([N+](=O)[O-])cc1`, the 50% effective concentration (EC50) was 3.72 µM. In the case of `CSc1ccc(/C=C2\CCn3c2nc2cc(C(=O)O)ccc2c3=O)cc1`, the half-maximal effective concentration (EC50) was 6.15 µM. Consider `CC(=O)OCC1=C(C(=O)O)N2C(=O)C(NC(=O)C(C)Cn3cc(Cl)cn3)C2SC1` (stereo not drawn), for which the EC50 was 1.96 µM. Next, `c1ccc(-n2c3ccccc3c3ccccc32)cc1`: 4.4 µM. As for `CCSc1cc(N2CCCC2)nc(-c2ccccc2)n1`, the EC50 is > 15 µM (inactive). Consider `Cc1ccc(NC(=O)C(OC(=O)c2ccc(NC(N)=O)cc2)c2ccccc2)cc1Cl` (stereo not drawn), for which the EC50 is 6.52 µM. Take `Cc1cc(Cl)c2oc(C(=O)N3CCC(O)(c4ccccc4)CC3)c(C)c2c1`: the concentration for a half-maximal effect (EC50) is 7.31 µM. Regarding `CCCCCCCCCCCCN1[C@@H](CC(=O)O)c2cc(C(F)(F)F)ccc2S1(=O)=O`, the EC50 is 2.44 µM.

As for `Cc1[nH]n(-c2cccc3ccccc23)c(=O)c1/C=N/NC(=O)c1cccc([N+](=O)[O-])c1`, the 50% effective concentration (EC50) is 2.47 µM. Next, `CCOC(=O)c1c(NC(=O)c2cccs2)sc2c1CCN(C(=O)OCC)C2`: 13 µM. As to `O=C(N/N=C/c1cc([N+](=O)[O-])ccc1O)C(O)(c1ccccc1)c1ccccc1`, the EC50 is 6.17 µM. For the compound `CCC(C)Sc1cc(C(F)(F)F)c(C(=O)Nc2ccc(Cl)cc2)cn1` (stereo not drawn), the EC50 is 7.31 µM. In the case of `O=C1/C(=N\S(=O)(=O)c2cccs2)C([n+]2cccc(Cc3ccccc3)c2)=C([O-])c2ccccc21`, the 50% effective concentration (EC50) is 1.68 µM. The same measure for `COc1cc([N+](=O)[O-])cc(/C=N/NC(=O)c2cncc(Br)c2)c1O`: 0.97 µM. In the case of `Cc1cc(C)c(COc2ccc(/C=N/n3c(C)n[nH]c3=S)cc2)c(C)c1`, the concentration giving a half-maximal response (EC50) is 5.33 µM.

Take `COc1ccc(/C=C2\SC(=N)N(c3nccs3)C2=O)cc1OC`: the EC50 is 0.838 µM. Consider `COc1ccccc1-c1n[nH]c2c1[C@H](C)CC[C@H]2C(C)C`, for which the concentration for a half-maximal effect (EC50) is 2.81 µM.

Turning to `CS(=O)(=O)Nc1ccc(C2=NN(C(=O)C3CCCCC3)C(c3cccs3)C2)cc1` (stereo not drawn), the EC50 is 3.94 µM. Next, `Cc1cccc(C)c1OCC(=O)NNC(=S)NC(=O)C1CC1`: 0.304 µM; `Cc1ccc(N/N=C2\CS(=O)(=O)N(C)c3ccsc32)cc1`: 1.49 µM; `O=C(NC(=S)NNC(=O)c1ccccc1O)c1ccc(F)cc1`: 1.29 µM. The same measure for `CCCc1cc(C(=O)Nc2ccc(C(=O)c3ccc(F)cc3)cc2)n(C)n1`: > 15 µM (inactive). For `O=C(O)c1ccc(-c2nc(-c3ccc(Cl)c(Cl)c3)cs2)cc1`, the EC50 is 3.82 µM. With `O=C1/C(=C/c2cccnc2)SC(=NCc2ccccc2)N1Cc1ccccc1`, the concentration giving a half-maximal response (EC50) is 8.09 µM. As to `COCc1cc(=O)[nH]c(Nc2nc3ccccc3o2)n1`, the EC50 was 2.66 µM.

The values are drawn from PubChem BioAssay AID1902 (Broad Institute, 2009).
